Values joined by “and” are separate entries in the source; they are usually repeats but may differ in a detail not shown here. Equal values may be shown once.
Molecular target: T1, PfCRT^Dd2_H97Y (Plasmodium falciparum, UniProt Q8IBZ9, A220S/H97Y/I356T/K76T/M74I/N326S/N75E/Q271E/R371I)
T1 construct: expressed in transfected cells; host or cells: Xenopus laevis oocytes injected with in vitro transcribed RNA (pSP64T)
T1 sequence (Q8IBZ9 1-424 M74I/N75E/K76T/H97Y/A220S/Q271E/N326S/I356T/R371I): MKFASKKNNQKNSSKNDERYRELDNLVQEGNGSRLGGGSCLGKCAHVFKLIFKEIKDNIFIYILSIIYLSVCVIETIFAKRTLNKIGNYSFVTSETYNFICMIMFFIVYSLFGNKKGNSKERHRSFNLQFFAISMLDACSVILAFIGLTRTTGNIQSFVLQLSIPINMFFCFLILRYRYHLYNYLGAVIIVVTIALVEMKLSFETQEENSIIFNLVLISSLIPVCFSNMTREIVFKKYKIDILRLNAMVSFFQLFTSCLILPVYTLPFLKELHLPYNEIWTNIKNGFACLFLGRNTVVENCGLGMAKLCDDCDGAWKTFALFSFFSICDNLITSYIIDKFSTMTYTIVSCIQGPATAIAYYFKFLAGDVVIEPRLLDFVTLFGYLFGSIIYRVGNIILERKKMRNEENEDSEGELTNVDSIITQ
Assay: Verapamil inhibition of PfCRT-mediated CQ and PPQ transport in oocytes, PfCRT^Dd2_H97Y
Format: cell-based
Conditions: individual replicates (S3 Fig)
Method: In all cases, the PfCRT-mediated CQ and PPQ transport was inhibited in the presence of 100 μM verapamil (S3 Fig).
Drug transport assays were performed as previously described. Briefly, measurements of radiolabeled drug uptake were made over 1 h, unless otherwise specified. […] Where specified, one or more unlabeled drugs were also present at the indicated concentrations. The direction of drug transport in the assays is from the extracellular medium (pH 6) into the oocyte cytosol (pH 7.2), which corresponds to the efflux of CQ or PPQ from the acidic digestive vacuole (pH 5.2) into the parasite cytosol (pH 7.2). The uptake assays were terminated by removing the oocytes from the reaction medium and washing them three times with 2 mL of ice-cold ND96 buffer. Each oocyte was transferred to a separate scintillation vial and lysed by the addition of 200 μL of a 5% SDS solution. The radioactivity in the sample was measured using a liquid scintillation analyser Tri-Carb 4910 TR (PerkinElmer). Water-injected oocytes were analyzed in parallel as a negative control. The buffer from each condition was measured in duplicate in parallel to each experiment to transform counts per minute into pmol of drug. Drug uptake attributable to PfCRT was determined by subtracting the background uptake from water-injected oocytes from that of PfCRT-expressing oocytes. In all cases, at least three independent experiments were performed on oocytes from different frogs, and for each condition in an experiment, measurements were made from 10 oocytes per treatment.
Supplementary file ppat.1011436.s006.tif: S3 Fig Verapamil inhibits PfCRT-mediated transport of CQ and PPQ. […] Left panels, data is shown as individual biological replicates (coloured symbols) overlaid onto bars representing the Mean ± S.E.M. (error bars). A one-tailed Student’s t-test was performed between untreated (no VP) and treated (+ 100 μM VP) samples, and the obtained p values are shown. Right panels, the uptake in VP-treated samples was divided by the uptake in their corresponding untreated pairs and subtracted from 100% to get the percentage of uptake inhibition mediated by the presence of 100 μM verapamil in the extracellular medium. Error bars are S.E. (TIF) Click here for additional data file.

| Compound | PfCRTDd2_H97Y-mediated CQ transport (50 µM CQ + 100 µM VP) | PfCRTDd2_H97Y-mediated CQ transport (50 µM CQ) | PfCRTDd2_H97Y-mediated PPQ transport (50 µM PPQ + 100 µM VP) |
| --- | --- | --- | --- |
| CCN(CC)CCCC(C)Nc1ccnc2cc(Cl)ccc12 (stereo not drawn) [CQ, chloroquine] | 2.480 pmol oocyte-1 h-1 and 0.550 pmol oocyte-1 h-1 and 3.310 pmol oocyte-1 h-1 and 4.210 pmol oocyte-1 h-1 | 8.240 pmol oocyte-1 h-1 and 3.560 pmol oocyte-1 h-1 and 5.410 pmol oocyte-1 h-1 and 4.920 pmol oocyte-1 h-1 |  |
| Clc1ccc2c(N3CCN(CCCN4CCN(c5ccnc6cc(Cl)ccc56)CC4)CC3)ccnc2c1 [PPQ, piperaquine] |  |  | 18.33 pmol oocyte-1 h-1 and 31.33 pmol oocyte-1 h-1 and 27.94 pmol oocyte-1 h-1 and 23.86 pmol oocyte-1 h-1 |
